Reference: US9221827B2, “Antimicrobial compounds and methods of making and using the same” (Melinta Therapeutics, Inc., priority 2011, dated 2015)

Test system: Escherichia coli strain ATCC25922
Assay: standard microdilution assay to determine minimum inhibitory concentrations (MICs)
Assay type: cell-based
Outline: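 Broth microdilution per CLSI (M7-A8/M100-S20), 100 μl final volume, with reference-strain quality control; MIC is the lowest inhibitory concentration. Scored "+"/"−" against a 16 micrograms/ml cutoff, "N/A" where unavailable.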

[1] = Escherichia coli strain ATCC25922, standard microdilution assay
[2] = Escherichia coli strain ATCC25922, microdilution

| Compound | E. coli ATCC25922 MIC [2] | other results |
| --- | --- | --- |
| CC(N)CCCc1cc(Cl)c(F)c(-c2cc3cn(-c4ccc(C(C)NCCCNC(N)=NCC5CC5)cc4)c(=O)nc3[nH]2)c1 (stereo not shown) [Compound 346] | – | E. coli ATCC25922 MIC [1]: + (a “+” indicates that the compound has an MIC value of 16 micrograms/ml or less) |
| NCCCCc1cc(-c2cc3cn(-c4ccc(CNCCCN=C(N)N)c(F)c4)c(=O)nc3[nH]2)cc(C(F)(F)F)c1 [Compound 80] | + (a “+” indicates that the compound has an MIC value of 16 micrograms/ml or less) | – |
| COC(=O)CC(NCCCNC(=N)N)c1ccc(-n2cc3cc(-c4cc(CCCC(C)N)cc(SC(F)(F)F)c4)[nH]c3nc2=O)cc1 (stereo not shown) [Compound 491] | + (a “+” indicates that the compound has an MIC value of 16 micrograms/ml or less) | – |
| CC(N)CCCc1cc(Cl)c(F)c(-c2cc3cn(-c4ccc(C(C)NCCCNC(N)=NC5CCC5)cc4)c(=O)nc3[nH]2)c1 (stereo not shown) [Compound 368] | – | E. coli ATCC25922 MIC [1]: + (a “+” indicates that the compound has an MIC value of 16 micrograms/ml or less) |
| C[C@H](N)CCCc1cc2c(c(-c3cc4cn(-c5ccc(CNCCCNC(=N)N)cc5)c(=O)nc4[nH]3)c1)COC2 [Compound 442] | – | E. coli ATCC25922 MIC [1]: + (a “+” indicates that the compound has an MIC value of 16 micrograms/ml or less) |
| C[C@H](N)CCCc1cc(CC(C)(C)C)c(F)c(-c2cc3cn(-c4ccc([C@H](C)NCCCNC(=N)N)cc4)c(=O)nc3[nH]2)c1 [Compound 458] | – | E. coli ATCC25922 MIC [1]: + (a “+” indicates that the compound has an MIC value of 16 micrograms/ml or less) |
| N=C(N)NCCCNCc1ccc(-n2cc3cc(-c4cc(CCCCN)cc(C(F)(F)F)c4C(F)(F)F)[nH]c3nc2=O)cc1 [Compound 293] | + (a “+” indicates that the compound has an MIC value of 16 micrograms/ml or less) | – |
| CC(N)CCCc1cc(Cl)c(F)c(-c2cc3cn(-c4ccc(CNCCCNC(=N)N)cc4)c(=O)nc3[nH]2)c1 (stereo not shown) [Compound 268] | + (a “+” indicates that the compound has an MIC value of 16 micrograms/ml or less) | – |
| CC(N)CCCc1cc(CC(F)(F)F)cc(-c2cc3cn(-c4ccc(C(C)NCCCNC(=N)N)cc4)c(=O)nc3[nH]2)c1 (stereo not shown) [Compound 340] | – | E. coli ATCC25922 MIC [1]: + (a “+” indicates that the compound has an MIC value of 16 micrograms/ml or less) |
| COC(=O)C(NCCCNC(=N)N)c1ccc(-n2cc3cc(-c4cc(CCCC(C)N)cc(SC(F)(F)F)c4)[nH]c3nc2=O)cc1 (stereo not shown) [Compound 498] | + (a “+” indicates that the compound has an MIC value of 16 micrograms/ml or less) | – |
| CC(C)(N)CCCc1cc(-c2cc3cn(-c4ccc(CNCCCNC(=N)N)cc4)c(=O)nc3[nH]2)cc(C(F)(F)F)c1 [Compound 317] | + (a “+” indicates that the compound has an MIC value of 16 micrograms/ml or less) | – |
| CC(CCN)Cc1cc(-c2cc3cn(-c4ccc(CNCCCNC(=N)N)cc4)c(=O)nc3[nH]2)cc(F)c1Cl (stereo not shown) [Compound 129] | + (a “+” indicates that the compound has an MIC value of 16 micrograms/ml or less) | – |
| CC(C)(CN)CCc1cc(OC(F)(F)F)cc(-c2cc3cn(-c4ccc(CNCCCNC(=N)N)cc4)c(=O)nc3[nH]2)c1 [Compound 104] | + (a “+” indicates that the compound has an MIC value of 16 micrograms/ml or less) | – |
| CC(N)CCCc1cc(-c2cc3cn(-c4ccc(C5(NCCCNC(=N)N)CC5)cc4)c(=O)nc3[nH]2)cc(C(F)(F)F)c1 (stereo not shown) [Compound 485] | + (a “+” indicates that the compound has an MIC value of 16 micrograms/ml or less) | – |
| NCCCCc1cc(-c2cc3cn(-c4ccc(CNCCCN=C(N)N)cc4)c(=O)nc3[nH]2)c(Cl)c(C(F)(F)F)c1 [Compound 64] | + (a “+” indicates that the compound has an MIC value of 16 micrograms/ml or less) | – |
| C[C@H](N)CCCc1cc(Cl)c(F)c(-c2cc3cn(-c4ccc(CNCCCN/C(N)=N\[N+](=O)[O-])cc4)c(=O)nc3[nH]2)c1 [Compound 394] | – | E. coli ATCC25922 MIC [1]: + (a “+” indicates that the compound has an MIC value of 16 micrograms/ml or less) |

| Compound | E. coli ATCC25922 MIC [2] | other results |
| --- | --- | --- |
| C[C@@H](CN)CN1C[C@H](NC(=O)Nc2nc(=O)c(-c3ccc(CNCCCNC(=N)N)cc3)c[nH]2)C[C@H]1CNCCC1CC1 [Compound 153] | + (a “+” indicates that the compound has an MIC value of 16 micrograms/ml or less) | – |
| Cc1cc(CCCC(C)N)cc(-c2cc3cn(-c4ccc(CNCCCNC(=N)N)cc4)c(=O)nc3[nH]2)c1F (stereo not shown) [Compound 219] | + (a “+” indicates that the compound has an MIC value of 16 micrograms/ml or less) | – |
| CCOc1cc(CCCCN)cc(-c2cc3cn(-c4ccc(CNCCCNC(=N)N)cc4)c(=O)nc3[nH]2)c1C(F)(F)F [Compound 229] | + (a “+” indicates that the compound has an MIC value of 16 micrograms/ml or less) | – |
| COCc1cc(CCCCN)cc(-c2cc3cn(-c4ccc(CNCCCNC(=N)N)cc4)c(=O)nc3[nH]2)c1 [Compound 3] | + (a “+” indicates that the compound has an MIC value of 16 micrograms/ml or less) | – |
| N=C(N)NCCCNCc1ccc(-n2cc3cc(-c4cc(CC5CCC(N)CC5)cc(Cl)c4F)[nH]c3nc2=O)cc1 (stereo not shown) [Compound 448] | – | E. coli ATCC25922 MIC [1]: + (a “+” indicates that the compound has an MIC value of 16 micrograms/ml or less) |
| CS(=O)(=O)c1cc(CCCCN)cc(-c2cc3cn(-c4ccc(CNCCCNC(=N)N)cc4)c(=O)nc3[nH]2)c1 [Compound 33] | + (a “+” indicates that the compound has an MIC value of 16 micrograms/ml or less) | – |
| NCc1cc(CCCO)cc(-c2cc3cn(-c4ccc(CNCCCN=C(N)N)cc4)c(=O)nc3[nH]2)c1 [Compound 79] | + (a “+” indicates that the compound has an MIC value of 16 micrograms/ml or less) | – |
| CC(C)(CNCc1ccc(-n2cc3cc(-c4cc(CCCCN)cc(OC(F)(F)F)c4)[nH]c3nc2=O)cc1)CNC(=N)N [Compound 31] | + (a “+” indicates that the compound has an MIC value of 16 micrograms/ml or less) | – |
| COc1c(CCCCN)cc(-c2cc3cn(-c4ccc(CNCCCNC(=N)N)cc4)c(=O)nc3[nH]2)cc1OC(F)(F)F [Compound 44] | + (a “+” indicates that the compound has an MIC value of 16 micrograms/ml or less) | – |
| C[C@H](N)CCCc1cc2c(c(-c3cc4cn(-c5ccc([C@H](C)NCCCNC(=N)N)cc5)c(=O)nc4[nH]3)c1)CCC2=O [Compound 461] | – | E. coli ATCC25922 MIC [1]: + (a “+” indicates that the compound has an MIC value of 16 micrograms/ml or less) |
| C[S+]([O-])c1cc(CCCCN)cc(-c2cc3cn(-c4ccc(CNCCCNC(=N)N)cc4)c(=O)nc3[nH]2)c1 (stereo not shown) [Compound 32] | + (a “+” indicates that the compound has an MIC value of 16 micrograms/ml or less) | – |
| C[C@H](N)CCCc1cc(C(F)(F)F)cc(-c2cc3cn(-c4ccc([C@H](C)NCCCNC(=N)N)cc4)c(=O)nc3[nH]2)n1 [Compound 390] | – | MIC (Escherichia coli strain ATCC25922, standard microdilution assay, read-out: E. coli ATCC25922 MIC): ≤ 16 µg/mL |
| CC(C)c1cc(CCC[C@H](C)N)cc(-c2cc3cn(-c4ccc(CNCCCNC(=N)N)cc4)c(=O)nc3[nH]2)c1F [Compound 408] | – | E. coli ATCC25922 MIC [1]: + (a “+” indicates that the compound has an MIC value of 16 micrograms/ml or less) |
| NCCCCc1cc(OC(F)(F)F)cc(-c2cc3cn(-c4ccc(CNCCCN/C(N)=N\CCCF)cc4)c(=O)nc3[nH]2)c1 [Compound 47] | + (a “+” indicates that the compound has an MIC value of 16 micrograms/ml or less) | – |
| CC(N)CCc1cc(Cl)c(F)c(-c2cc3cn(-c4ccc(CNCCCNC(=N)N)cc4)c(=O)nc3[nH]2)c1 (stereo not shown) [Compound 257] | + (a “+” indicates that the compound has an MIC value of 16 micrograms/ml or less) | – |
